The values that follow come from patent US6638972B2, “Chroman and benzofuran derivatives as 5-hydroxytryptamine-6 ligands” (Wyeth, priority 2001, dated 2003).

Series [1] has as its target T1, human cloned 5-HT6 receptors (Homo sapiens, UniProt P50406).
T1 construct: expressed in transfected cells; host or cells: HeLa cells (membrane preparation)
As to the kind of experiment: 5-HT6 binding affinity ([3H]-LSD displacement, membranes of Hela cells expressing human cloned 5-HT6 receptors). The settings on record: [3H]-LSD 3.0 nM, Hela cell membranes, 120 min at room temperature; read-out: 5-HT6 Binding Ki. How it is done: The affinity of test compounds for the serotonin 5-T6 receptor is evaluated in the following manner. Cultured Hela cells expressing human cloned 5-HT6 receptors are harvested and centrifuged at low speed (1,000×g) for 10.0 min to remove the culture media. The harvested cells are suspended in half volume of fresh physiological phosphate buffered saline solution and recentrifuged at the same speed. This operation is repeated. The collected cells are then homogenized in ten volumes of 50 mM Tris.HCl (pH 7.4) and 0.5 mM EDTA. The homogenate is centrifuged at 40,000×g for 30.0 min and the precipitate is collected. The obtained pellet is resuspended in 10 volumes of Tris.HCl buffer and recentrifuged at the same speed. The final pellet is suspended in a small volume of Tris.HCl buffer and the tissue protein content is determined in aliquots of 10-25 μl volumes. Bovine Serum Albumin is used as the standard in the protein determination according to the method described in Lowry et al., J. Biol. Chem., 193:265 (1951). The volume of the suspended cell membranes is adjusted to give a tissue protein concentration of 1.0 mg/ml of suspension. The prepared membrane suspension (10 times concentrated) is aliquoted in 1.0 ml volumes and stored at −70° C. until used in subsequent binding experiments.
Binding experiments are performed in a 96 well microtiter plate format, in a total volume of 200 μl. […] The test compounds are added in 20.0 μl volume.
The reaction is allowed to proceed in the dark for 120 min at room temperature, at which time, the bound ligand-receptor complex is filtered off on a 96 well unifilter with a Packard Filtermate® 196 Harvester. The bound complex caught on the filter disk is allowed to air dry and the radioactivity is measured in a Packard TopCount® equipped with six photomultiplier detectors, after the addition of 40.0 μl Microscint®-20 scintillant to each shallow well. The unifilter plate is heat-sealed and counted in a PackardTopCount® with a tritium efficiency of 31.0%.
Binding in the presence of varying concentrations of test compound is expressed as a percentage of specific binding in the absence of test compound. The results are plotted as log % bound versus log concentration of test compound. […] A linear regression line of data points is plotted, from which the IC50 value is determined and the Ki value is determined based upon the following equation: […]
where L is the concentration of the radioactive ligand used and KD is the dissociation constant of the ligand for the receptor, both expressed in nM.

T1 sequence (P50406 whole entry): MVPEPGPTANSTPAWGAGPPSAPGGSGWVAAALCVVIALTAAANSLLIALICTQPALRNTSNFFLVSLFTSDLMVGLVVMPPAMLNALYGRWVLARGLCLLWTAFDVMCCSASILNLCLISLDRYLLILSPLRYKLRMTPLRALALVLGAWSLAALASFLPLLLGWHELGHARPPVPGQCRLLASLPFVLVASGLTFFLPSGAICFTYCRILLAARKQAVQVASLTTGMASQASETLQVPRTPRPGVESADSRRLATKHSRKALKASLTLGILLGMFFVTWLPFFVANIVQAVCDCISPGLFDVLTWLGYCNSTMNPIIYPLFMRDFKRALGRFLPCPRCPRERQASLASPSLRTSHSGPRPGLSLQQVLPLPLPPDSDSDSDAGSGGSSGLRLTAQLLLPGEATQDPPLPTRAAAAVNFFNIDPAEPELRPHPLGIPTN

For the molecule `COCCCNC[C@H]1CCc2ccc(OCc3ccccc3)cc2O1` [Example 46, [(2R)-7-benzyloxy-chroman-2-ylmethyl]-(3-methoxy-propyl)-amine], the melting point (usually the temperature, or range, at which the solid turns liquid) is 128 to 129 °C. The inhibition constant Ki (usually the dissociation constant of the complex between target and ligand, obtained from inhibition or displacement) in series [1] was determined as 25 nM.
As for `OCCCNCC1Cc2ccc(OCc3ccccc3)cc2O1` (centres unmarked) [Example 53, 3-[(6-benzyloxy-2,3-dihydro-benzofuran-2-ylmethyl)-amino]-propan-1-ol], the melting point is 125 to 127 °C. In series [1], the inhibition constant (Ki) was 339 nM.
The corresponding values for `c1ccc(CNCc2cc3ccc(OCc4ccccc4)cc3o2)cc1` [Example 54, benzyl-(6-benzyloxy-benzofuran-2-ylmethyl)-amine] are 198 to 200 °C and 1350 nM.
The corresponding values for `OCCCNCc1cc2ccc(OCc3ccccc3)cc2o1` [Example 55, 3-[(6-benzyloxy-benzofuran-2-ylmethyl)-amino]-propan-1-ol] are 145 to 147 °C and 1180 nM.
